Measurements reported in US20260167641A1, “CRYSTAL FORM OF IMIDAZOPYRAZINE DERIVATIVE, PREPARATION METHOD THEREFOR AND USE THEREOF” (TRANSTHERA SCIENCES (NANJING), INC., priority 2022, published 2026).
In brackets after ≈: the same amount, converted by molar mass.

Columns and labels:
Assay type in all cases: physicochemical
[1] = Solubility test in pH 4.5 acetate buffer solution
Protocol: Appropriate amounts of crystal forms I, II, III, and the compound of formula (I) were weighed and placed into 15 mL centrifuge tubes separately. A pH 4.5 acetate buffer was added to each tube to prepare saturated solutions. The tubes were sealed and placed in a water bath thermostatic oscillator to shake at 37° C. and a rotation speed of 200 rpm for 24 h. After centrifugation, the supernatants were collected and diluted to the corresponding multiples. The concentrations were measured. The detection was conducted according to the 2020 edition of the Chinese Pharmacopoeia.

[2] = Stability evaluation under influencing factors
Protocol: Appropriate amounts of crystal forms I, II. III, and the compound of formula (I) were taken and exposed to conditions of 60° C., RH (relative humidity) 92.5%, RH (relative humidity) 75%, and light, respectively. The samples were collected on day 30, and the purity of the samples and changes in XRPD were examined according to the 2020 edition of the Chinese Pharmacopoeia.

Hygroscopicity test = settings: 25° C.±1° C.
Protocol: The experimental procedure was conducted in accordance with the guidelines for the hygroscopicity test of drugs in Chinese Pharmacopeia (2020 Edition). • 1. A dry glass weighing bottle with a stopper (outer diameter: 50 mm, height: 15 mm) was taken and placed in a thermostatic drier at 25° C.±1° C. (with a saturated ammonium chloride solution at the bottom) on the day before the test. After 24 h. the bottle was taken out, and its weight (m1) was precisely weighed. • 2. […] The total weight (m2) was precisely weighed. • 3. The weighing bottle was left open, and both the bottle and its bottle cap were placed under the constant temperature and humidity conditions described above for 24 h. • 4. The bottle was well sealed with its bottle cap, and the total weight (m3) was precisely weighed.
[formula] • 5. Hygroscopicity characteristics and hygroscopic weight gains are defined as follows. • deliquescent: sufficient water is absorbed to form a liquid; • extremely hygroscopic: the hygroscopic weight gain is not less than 15%; • hygroscopic: the hygroscopic weight gain is less than 15% but not less than 2%; • slightly hygroscopic: the hygroscopic weight gain is less than 2% but not less than 0.2%; • non-hygroscopic or almost non-hygroscopic: the hygroscopic weight gain is less than 0.2%.

Long-term stability test = assay: Long-term stability test
Protocol: The samples were stored under the conditions of 25° C./60% RH (relative humidity) and 30° C./65% RH (relative humidity), respectively, and then collected at 1M, 2M, 3M, 6M, 9M, 12M, and 18M. Additionally, the samples were stored under the conditions of 40° C./75% RH (relative humidity) and then collected at 1M, 2M, 3M, and 6M. The appearance, total impurities, content, moisture, and crystal form changes (at 3M, 6M, and 12M) were examined and compared with the results on day 0.

Nc1nccn2c(C34CCC(NC(=O)CN5CCOCC5)(CC3)C4)nc(-c3ccc(C(=O)Nc4cc(C(F)(F)F)ccn4)cc3)c12 (single isomer, unassigned) [Crystal form II, 4-(8-amino-3-(4-(2-morpholinoacetamido)bicyclo[2.2.1]heptan-1-yl)imidazo[1,5-a]pyrazin-1-yl)-N-(4-(trifluoromethyl)pyridin-2-yl)benzamide]
Solubility compared to the amorphous form [1]: higher solubility | Solubility ([1]; saturated solution, 37° C., 200 rpm, 24 h): 375 µg/mL (≈ 591 µM) | Purity % ([2]; 0 day): 99.3% | Crystal form identification (XRPD) ([2]; 60° C., 30 days): Consistent with day 0 | Purity % ([2]; 60° C., 30 days): 99.3% | Crystal form identification (XRPD) ([2]; Light exposure, 30 days): Consistent with day 0 | Purity % ([2]; Light exposure, 30 days): 98.8% | Crystal form identification (XRPD) ([2]; RH 75%, 30 days): Consistent with day 0 | Purity % ([2]; RH 75%, 30 days): 99.3% | Crystal form identification (XRPD) ([2]; RH 92.5%, 30 days): Consistent with day 0 | Purity % ([2]; RH 92.5%, 30 days): 99.3% | Change of crystal form (XRPD pattern) ([2]; all influencing factor conditions, 30 days): no changes in the crystal forms occurred | Stability compared to the amorphous form ([2]; influencing factors, 30 days): higher stability | Purity decrease ([2]; light exposure, 30 days vs day 0): 0.5% | Hygroscopicity characteristic (Hygroscopicity test; 24 h): slightly hygroscopic (the hygroscopic weight gain is less than 2% but not less than 0.2%) | 24 h percentage weight gain (Hygroscopicity test; saturated ammonium chloride solution): 0.34% | Appearance (Long-term stability test; 0 day): Yellow solid | Content % (Long-term stability test; 0 day): 98.3% | Crystal form XRPD (Long-term stability test; 0 day): Crystal form II | Moisture % (Long-term stability test; 0 day): 0.23% | Total impurities % (Long-term stability test; 0 day): 1.1% | Changes in appearance, total impurities, content, and moisture (Long-term stability test; 6 months at 40° C./75% RH, 18 months at 25° C./60% RH and 30° C./65% RH): no significant changes | Appearance (Long-term stability test; 25° C./60% RH, 1M): Yellow solid | Content % (Long-term stability test; 25° C./60% RH, 1M): 98.2% | Moisture % (Long-term stability test; 25° C./60% RH, 1M): 0.28% | Total impurities % (Long-term stability test; 25° C./60% RH, 1M): 1.1% | Appearance (Long-term stability test; 25° C./60% RH, 2M): Yellow solid | Content % (Long-term stability test; 25° C./60% RH, 2M): 98.3% | Moisture % (Long-term stability test; 25° C./60% RH, 2M): 0.16% | Total impurities % (Long-term stability test; 25° C./60% RH, 2M): 1.2% | Appearance (Long-term stability test; 25° C./60% RH, 3M): Yellow solid | Content % (Long-term stability test; 25° C./60% RH, 3M): 98.4% | Crystal form XRPD (Long-term stability test; 25° C./60% RH, 3M): Crystal form II | Moisture % (Long-term stability test; 25° C./60% RH, 3M): 0.24% | Total impurities % (Long-term stability test; 25° C./60% RH, 3M): 1.1% | Appearance (Long-term stability test; 25° C./60% RH, 6M): Yellow solid | Content % (Long-term stability test; 25° C./60% RH, 6M): 98.2% | Crystal form XRPD (Long-term stability test; 25° C./60% RH, 6M): Crystal form II | Moisture % (Long-term stability test; 25° C./60% RH, 6M): 0.16% | Total impurities % (Long-term stability test; 25° C./60% RH, 6M): 1.1% | Appearance (Long-term stability test; 25° C./60% RH, 9M): Yellow solid | Content % (Long-term stability test; 25° C./60% RH, 9M): 98.5% | Moisture % (Long-term stability test; 25° C./60% RH, 9M): 0.23% | Total impurities % (Long-term stability test; 25° C./60% RH, 9M): 1.1% | Appearance (Long-term stability test; 25° C./60% RH, 12M): Yellow solid | Content % (Long-term stability test; 25° C./60% RH, 12M): 98.2% | Crystal form XRPD (Long-term stability test; 25° C./60% RH, 12M): Crystal form II | Moisture % (Long-term stability test; 25° C./60% RH, 12M): 0.12% | Total impurities % (Long-term stability test; 25° C./60% RH, 12M): 1.1% | Appearance (Long-term stability test; 25° C./60% RH, 18M): Yellow solid | Content % (Long-term stability test; 25° C./60% RH, 18M): 98.9% | Moisture % (Long-term stability test; 25° C./60% RH, 18M): 0.24% | Total impurities % (Long-term stability test; 25° C./60% RH, 18M): 1.1% | Appearance (Long-term stability test; 30° C./65% RH, 1M): Yellow solid | Content % (Long-term stability test; 30° C./65% RH, 1M): 98.2% | Moisture % (Long-term stability test; 30° C./65% RH, 1M): 0.24% | Total impurities % (Long-term stability test; 30° C./65% RH, 1M): 1.1% | Appearance (Long-term stability test; 30° C./65% RH, 2M): Yellow solid | Content % (Long-term stability test; 30° C./65% RH, 2M): 97.9% | Moisture % (Long-term stability test; 30° C./65% RH, 2M): 0.19% | Total impurities % (Long-term stability test; 30° C./65% RH, 2M): 1.2% | Appearance (Long-term stability test; 30° C./65% RH, 3M): Yellow solid | Content % (Long-term stability test; 30° C./65% RH, 3M): 98.2% | Crystal form XRPD (Long-term stability test; 30° C./65% RH, 3M): Crystal form II | Moisture % (Long-term stability test; 30° C./65% RH, 3M): 0.30% | Total impurities % (Long-term stability test; 30° C./65% RH, 3M): 1.1% | Appearance (Long-term stability test; 30° C./65% RH, 6M): Yellow solid | Content % (Long-term stability test; 30° C./65% RH, 6M): 98.1% | Crystal form XRPD (Long-term stability test; 30° C./65% RH, 6M): Crystal form II | Moisture % (Long-term stability test; 30° C./65% RH, 6M): 0.13% | Total impurities % (Long-term stability test; 30° C./65% RH, 6M): 1.1% | Appearance (Long-term stability test; 30° C./65% RH, 9M): Yellow solid | Content % (Long-term stability test; 30° C./65% RH, 9M): 98.4% | Moisture % (Long-term stability test; 30° C./65% RH, 9M): 0.24% | Total impurities % (Long-term stability test; 30° C./65% RH, 9M): 1.1% | Appearance (Long-term stability test; 30° C./65% RH, 12M): Yellow solid | Content % (Long-term stability test; 30° C./65% RH, 12M): 98.2% | Crystal form XRPD (Long-term stability test; 30° C./65% RH, 12M): Crystal form II | Moisture % (Long-term stability test; 30° C./65% RH, 12M): 0.13% | Total impurities % (Long-term stability test; 30° C./65% RH, 12M): 1.1% | Appearance (Long-term stability test; 30° C./65% RH, 18M): Yellow solid | Content % (Long-term stability test; 30° C./65% RH, 18M): 99.0% | Moisture % (Long-term stability test; 30° C./65% RH, 18M): 0.17% | Total impurities % (Long-term stability test; 30° C./65% RH, 18M): 1.1% | Content % (Long-term stability test; 40° C./75% RH, 1M): 98.0% | Appearance (Long-term stability test; 40° C./75% RH, 2M): Yellow solid | Content % (Long-term stability test; 40° C./75% RH, 2M): 97.9% | Moisture % (Long-term stability test; 40° C./75% RH, 2M): 0.18% | Total impurities % (Long-term stability test; 40° C./75% RH, 2M): 1.2% | Appearance (Long-term stability test; 40° C./75% RH, 3M): Yellow solid | Content % (Long-term stability test; 40° C./75% RH, 3M): 98.1% | Crystal form XRPD (Long-term stability test; 40° C./75% RH, 3M): Crystal form II | Moisture % (Long-term stability test; 40° C./75% RH, 3M): 0.24% | Total impurities % (Long-term stability test; 40° C./75% RH, 3M): 1.1% | Appearance (Long-term stability test; 40° C./75% RH, 6M): Yellow solid | Content % (Long-term stability test; 40° C./75% RH, 6M): 98.3% | Crystal form XRPD (Long-term stability test; 40° C./75% RH, 6M): Crystal form II | Moisture % (Long-term stability test; 40° C./75% RH, 6M): 0.13% | Total impurities % (Long-term stability test; 40° C./75% RH, 6M): 1.1% | Appearance (Long-term stability test; 40° C./75% RH, ^ IM): Yellow solid | Moisture % (Long-term stability test; 40° C./75% RH, ^ IM): 0.24% | Total impurities % (Long-term stability test; 40° C./75% RH, ^ IM): 1.1%
